One experiment has as its target Aβ1-42 fibers (Homo sapiens, UniProt P05067). The experiment in a line: In vitro direct determination of Kd and Bmax by fluorescence, Aβ1-42 fibers. Format: binding. The note with it: for Aβ Bmax1: density of binding sites; for Aβ Bmax1 / Kd: direct fluorescence, Scatchard analysis; for Kd: Aβ1-42 fibers 500 nM, read-out: Aβ Kd1; for Aβ Bmax1 (number of sites/monomer): in brackets in the Bmax cell. The procedure:
(§1) To obtain fiber assembly, α-syn is incubated in Tris-HCl 50 mM pH7.5, KCl 150 mM at 37° C. under continuous agitation during 4 days. The lyophilized Aβ1-42 was dissolved in 1,1,1,3,3,3-Hexafluoro-2-propanol (HFIP) at 0.2 mg/mL and incubated for 24 h at 37° C. to obtain the complete solubilization. The HFIP is evaporated under nitrogen stream to obtain a dry product. To start the fiber assembly, the dry peptide is resuspended in PBS pH7.4, 10% (v/v) DMSO and incubated at 37° C. for 3 days without agitation.
(§2) Fresh solutions of each test compound (2.5 mM in DMSO) are diluted in PBS pH=7.4 at concentrations between 0.5 nM and 5 μM in the presence or absence of α-syn (200 nM), Aβ1-42 (500 nM) or Tau (200 nM) fibers in a final 2 mL volume. After 1 h of incubation at RT, the binding of each compound to α-syn, A131-42 or Tau fibers is measured by fluorescence using the spectral changes of the compounds during their binding to the fibers, using the appropriate excitation/emission wavelengths (those giving the highest fluorescence variation during binding to the fibres). For each concentration of compound added to the fibres, the bound and free fractions are measured by fluorescence according to the following equation: Fm=FBB+FF×(T−B)
(§3) The value of FF is determined by measuring the fluorescence of known concentrations of compounds in the absence of fibres. The FB value is determined by measuring the maximum fluorescence of known concentrations of compounds in the presence of saturated concentrations of α-syn, Aβ1-42, or Tau fibers.
(§4) The values of B thus determined versus the concentrations of the free fractions (T-B) are analyzed according to the Michaelis-Menten equation. The affinity (Kd) and density of binding sites within the fibers of α-syn, Aβ1-42 or Tau (Bmax) are determined by Scatchard analysis, which also makes it possible to highlight multiple site classes.

Another experiment addresses Aβ1-42 fibres (Homo sapiens, UniProt P05067). The experiment in a line: In vitro inhibition of ThT binding and determination of Ki (fluorescence), Aβ1-42 fibres. The note with it: vs Thioflavin T 500 nM; Aβ1-42 fibres 500 nM; PBS pH7.4, 1 h RT; read-out: Ki Aβ. The procedure:
as §1
(§5) Protein fibers are systematically observed by electron microscopy (Jeol 1400). The images are recorded with a CCD camera (Gatan Orius). Finally, the percentage of α-syn and Aβ1-42 aggregated into fibers is checked on the pellet after centrifugation at 40000×g for 20 min and determination of the concentration of soluble protein/peptide remaining in the supernatant.
(§6) The samples are incubated for 1 h at room temperature (RT) to reach equilibrium. […] From each curve, the IC50 value is measured using the following equation: Y=min+(max−min)/1+([…])^slope

The target in another experiment is Tau fibres (Homo sapiens (Human), UniProt P10636). The experiment in a line: In vitro inhibition of ThT binding and determination of Ki (fluorescence), Tau fibres. The note with it: for Tau selectivity according to analysis of Ki (Table 5): selective = good affinity and at least two times greater than for at least one of the two other proteins. The procedure: (§7) Tau protein in PBS buffer containing 1 mM DTT is assembled into fiber in the presence of one twelfth of a molar equivalent of heparin at 37° C. under stirring.
as §6

The target in a further experiment is α-syn fibres (Homo sapiens (Human), UniProt P37840). The experiment in a line: In vitro inhibition of ThT binding and determination of Ki (fluorescence), α-syn fibres. Particulars: for Ki: vs Thioflavin T 500 nM, α-syn fibres 200 nM, PBS pH7.4, 1 h RT, read-out: Ki αsyn; for α-syn selectivity according to analysis of Ki (Table 5): selective = good affinity and at least two times greater than for at least one of the two other proteins. On the procedure: as §1, §5, §6

Another experiment concerns the target Tau fibers (Homo sapiens (Human), UniProt P10636). The experiment in a line: In vitro direct determination of Kd and Bmax by fluorescence, Tau fibers. Type of experiment: binding. The note with it: for Tau Bmax1: density of binding sites; for Tau Bmax1 / Kd: direct fluorescence, Scatchard analysis; for Kd: Tau fibers 200 nM, read-out: Tau Kd1; for Tau Bmax1 (number of sites/monomer): in brackets in the Bmax cell; for Tau selectivity according to analysis of Kd (Tables 6 and 7): selective = good affinity and at least two times greater than for at least one of the two other proteins. The procedure:
Human Tau protein (isoform h2N4RTau) is expressed in the vector pET11d in E. Coli (strain BL21 (DE3), (Stratagene, La Jolla, Calif.)) and purified according to the described method (Barghorn S, Biernat J, Mandelkow E. (2005) Methods Mol Biol. 299:35-51). The Tau purified concentration is determined by measuring the absorbance at 280 nm using a molar extinction coefficient of 7450 M^−1 cm^−1.
as §7, §2
Where Fm is the fluorescence measured in the presence of fibers at a concentration T of the compound added to the fibers, FB is the specific fluorescence of the bound compound, FF is the specific fluorescence of the free compound, and B is the concentration of the fiber bound compound at a given concentration T (Bell, J. E., “Fluorescence; Solution Studies”, Spectrometry in Biochemistry, vol. I, Bell, J. E., ed., CRC Press, Inc., Boca Raton, Fla., pp. 155-194 (1981)).
as §3
Thus, at each point, the concentration of bound compound B is determined according to the following equation: B=(Fm−FF×T)/(FB−FF)
as §4

A further experiment concerns the target α-syn fibers (Homo sapiens (Human), UniProt P37840). In words: In vitro direct determination of Kd and Bmax by fluorescence, α-syn fibers. Type of experiment: binding. The note with it: for αsyn Bmax1: density of binding sites; for αsyn Bmax1 / Kd: direct fluorescence, Scatchard analysis; for Kd: α-syn fibers 200 nM, read-out: αsyn Kd1; for αsyn Bmax1 (number of sites/monomer): in brackets in the Bmax cell; for α-syn selectivity according to analysis of Kd (Tables 6 and 7): selective = good affinity and at least two times greater than for at least one of the two other proteins. On the procedure: as §1, §2, §3, §4

Read-outs that look alike come from different tables or passages of the source.

Aβ1-42 fibers, sequence (P05067 672-713 limits assumed): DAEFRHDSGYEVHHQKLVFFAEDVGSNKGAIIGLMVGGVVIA
Aβ1-42 fibres, sequence (P05067 672-713 limits assumed): as above
Tau fibers, sequence (P10636 other isoform, or with tags, fused parts or gaps): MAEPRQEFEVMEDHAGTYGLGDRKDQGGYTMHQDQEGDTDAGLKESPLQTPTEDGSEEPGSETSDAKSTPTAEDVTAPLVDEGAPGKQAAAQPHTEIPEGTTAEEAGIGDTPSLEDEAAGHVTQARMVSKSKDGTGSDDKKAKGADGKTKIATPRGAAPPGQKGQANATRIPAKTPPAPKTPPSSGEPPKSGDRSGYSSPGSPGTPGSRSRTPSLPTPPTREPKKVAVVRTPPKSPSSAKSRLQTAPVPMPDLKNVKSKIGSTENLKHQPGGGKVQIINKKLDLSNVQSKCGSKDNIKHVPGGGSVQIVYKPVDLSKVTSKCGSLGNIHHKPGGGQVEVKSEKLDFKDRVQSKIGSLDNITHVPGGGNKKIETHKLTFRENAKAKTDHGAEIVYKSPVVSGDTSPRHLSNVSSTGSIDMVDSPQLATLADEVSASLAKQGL
Tau fibres, sequence (P10636 other isoform, or with tags, fused parts or gaps): as above

`CNc1ccc(/C=C/c2ccc(OCCOCCOCCF)nc2)cc1` [AV45, reference compound]: on Aβ1-42 fibers, the “Aβ Bmax1” value stood at 3.33 ± 0.2 nmol/μmol prot, the Kd was found to be 1.68 ± 0.2 nM and the “Aβ Bmax1 (number of sites/monomer)” value was 1/300. Also, the Ki (usually a measure of affinity in units of concentration, obtained from inhibition or displacement) at Aβ1-42 fibres turned out to be 2.2 ± 1 nM. For the same molecule, the affinity on Tau fibres (vs Thioflavin T 500 nM, Tau fibres 200 nM, PBS pH7.4, 1 h RT), expressed as Ki, was 30.6 ± 9 nM. For the same molecule, on α-syn fibres, the inhibition constant Ki was determined as 76.6 ± 44 nM. Besides, on Tau fibers, the “Tau Bmax1” value is 92.0 ± 20 nmol/μmol prot, the Kd was determined as 19.6 ± 5 nM and the “Tau Bmax1 (number of sites/monomer)” value is 1/11. For the same molecule, on α-syn fibers, the “αsyn Bmax1” value amounted to 27.9 ± 19 nmol/μmol prot, the Kd was 24.3 ± 20 nM and the “αsyn Bmax1 (number of sites/monomer)” value was 1/35.
Turning to `CN(C)c1ccc(C#Cc2cc3cccnc3[nH]2)cc1` [Compound 22a, 4-((1H-Pyrrolo[2,3-b]pyridin-2-yl)ethynyl)-N,N-dimethylaniline], on Aβ1-42 fibers, the “Aβ Bmax1” value turned out to be 3.04 ± 0.6 nmol/μmol prot, the Kd turned out to be 11.8 ± 3 nM and the “Aβ Bmax1 (number of sites/monomer)” value is reported as 1/300. The inhibitory constant (Ki) at Aβ1-42 fibres was found to be 24.5 ± 9 nM. Also, on Tau fibres, the Ki was determined as 4.61 ± 0.2 nM and the “Tau selectivity according to analysis of Ki (Table 5)” value (“Tau selectivity according … (Table 5)” for short) is “selective”. Besides, at α-syn fibres, the “α-syn selectivity according to analysis of Ki (Table 5)” value is on record as “selective” and the Ki was 4.7 ± 2 nM. For the same molecule, at Tau fibers, the “Tau Bmax1” value worked out at 93.0 ± 15 nmol/μmol prot; the Kd worked out at 0.44 ± 0.1 nM; the “Tau Bmax1 (number of sites/monomer)” value is given as 1/10; the “Tau selectivity according to analysis of Kd (Tables 6 and 7)” value was “selective”. In addition, on α-syn fibers, the “αsyn Bmax1” value is 69.5 ± 20 nmol/μmol prot; the Kd is 0.53 ± 0.2 nM; the “αsyn Bmax1 (number of sites/monomer)” value is given as 1/14; the “α-syn selectivity according to analysis of Kd (Tables 6 and 7)” value is recorded as “selective”.
Consider `CN(C)c1ccc(C#Cc2cc3ccncc3[nH]2)cc1` [Compound 22b, 4-((1H-Pyrrolo[2,3-c]pyridin-2-yl)ethynyl)-N,N-dimethylaniline], for which, on Aβ1-42 fibers, the “Aβ Bmax1” value is recorded as 2.3 ± 0.8 nmol/μmol prot, the Kd was found to be 5.2 ± 3 nM and the “Aβ Bmax1 (number of sites/monomer)” value is 1/400. Also, on Aβ1-42 fibres, the inhibition constant Ki was found to be 91.5 ± 11 nM. Besides, on Tau fibres, affinity was put at a Ki of 8.4 ± 2 nM and the “Tau selectivity according … (Table 5)” value is listed as “selective”. On α-syn fibres, the “α-syn selectivity according to analysis of Ki (Table 5)” value is “selective” and the inhibition constant (Ki) was 28.7 ± 8 nM. Also, at Tau fibers, the “Tau Bmax1” value stood at 37.1 ± 10 nmol/μmol prot; the Kd is 0.49 ± 0.2 nM; the “Tau Bmax1 (number of sites/monomer)” value is on record as 1/30; the “Tau selectivity according to analysis of Kd (Tables 6 and 7)” value was “selective”. On α-syn fibers, the “αsyn Bmax1” value worked out at 80.0 ± 42 nmol/μmol prot; the Kd was 1.4 ± 1 nM; the “αsyn Bmax1 (number of sites/monomer)” value is 1/15; the “α-syn selectivity according to analysis of Kd (Tables 6 and 7)” value is “selective”.
Take `CN(C)c1ccc(C#Cc2cc3cnccc3[nH]2)cc1` [Compound 22d, 4-((1H-Pyrrolo[3,2-c]pyridin-2-yl)ethynyl)-N,N-dimethylaniline]: on Aβ1-42 fibers, the “Aβ Bmax1” value turned out to be 2.4 ± 0.8 nmol/μmol prot, the Kd amounted to 3.6 ± 2 nM and the “Aβ Bmax1 (number of sites/monomer)” value is 1/400. For the same molecule, at Tau fibers, the “Tau Bmax1” value stood at 12.5 ± 5 nmol/μmol prot, the Kd came to 2.4 ± 0.9 nM and the “Tau Bmax1 (number of sites/monomer)” value is listed as 1/80. Also, on α-syn fibers, the “αsyn Bmax1” value amounted to 6.0 ± 1 nmol/μmol prot; the Kd turned out to be 1 ± 0.5 nM; the “αsyn Bmax1 (number of sites/monomer)” value is recorded as 1/170; the “α-syn selectivity according to analysis of Kd (Tables 6 and 7)” value is “selective”.
Take `CN(C)c1ccc(C#Cc2cc3ccc(Cl)nc3[nH]2)cc1` [Compound 22e, 4-((6-Chloro-1H-pyrrolo[2,3-b]pyridin-2-yl)ethynyl)-N,N-dimethylaniline]: the Ki came to 909 ± 143 nM on Aβ1-42 fibres, 25.1 ± 8 nM at Tau fibres and 49.9 ± 12 nM at α-syn fibres. Moreover, the “Tau selectivity according … (Table 5)” value on Tau fibres is given as “selective”. Further, the “α-syn selectivity according to analysis of Ki (Table 5)” value on α-syn fibres was “selective”.
Take `CN(C)c1ccc(C#Cc2cc3ccc(F)nc3[nH]2)cc1` [Compound 22f, 4-((6-Fluoro-1H-pyrrolo[2,3-b]pyridin-2-yl)ethynyl)-N,N-dimethylaniline]: at Aβ1-42 fibers, the “Aβ Bmax1” value came out at 21.6 ± 3 nmol/μmol prot, the Kd is 16.8 ± 2 nM and the “Aβ Bmax1 (number of sites/monomer)” value is recorded as 1/50. The inhibition constant (Ki) on Aβ1-42 fibres came to 349 ± 256 nM.
Regarding `CN(C)c1ccc(C#Cc2cc3cc(F)cnc3[nH]2)cc1` [Compound 22g, 4-((5-Fluoro-1H-pyrrolo[2,3-b]pyridin-2-yl)ethynyl)-N,N-dimethylaniline], on Aβ1-42 fibres, the inhibition constant (Ki) came out at 318 ± 95 nM.
In the case of `CN(C)c1ccc(C#Cc2cc3c(F)ccnc3[nH]2)cc1` [Compound 22h, 4-((4-Fluoro-1H-pyrrolo[2,3-b]pyridin-2-yl)ethynyl)-N,N-dimethylaniline], the Ki on Aβ1-42 fibres stood at 244 ± 84 nM.
For the molecule `CN(C)c1ccc(C#Cc2cc3ccc(-c4cccs4)nc3[nH]2)cc1` [Compound 25a, N,N-Dimethyl-4-((6-(thiophen-2-yl)-1H-pyrrol[2,3-b]pyridin-2-yl)ethynyl)aniline], at Aβ1-42 fibers, the “Aβ Bmax1” value is 5.8 ± 0.32 nmol/μmol prot, the Kd stood at 4.9 ± 0.6 nM and the “Aβ Bmax1 (number of sites/monomer)” value is recorded as 1/170. Further, at Tau fibers, the “Tau Bmax1” value worked out at 70.4 ± 4 nmol/μmol prot, the Kd turned out to be 1.67 ± 0.5 nM and the “Tau Bmax1 (number of sites/monomer)” value is 1/10. Moreover, on α-syn fibers, the “αsyn Bmax1” value is listed as 53.5 ± 10 nmol/μmol prot; the Kd turned out to be 0.49 ± 0.2 nM; the “αsyn Bmax1 (number of sites/monomer)” value is reported as 1/20; the “α-syn selectivity according to analysis of Kd (Tables 6 and 7)” value is on record as “selective”.
As for `CN(C)c1ccc(C#Cc2cc3ccc(-c4ccsc4)nc3[nH]2)cc1` [Compound 25b, N,N-Dimethyl-4-((6-(thiophen-3-yl)-1H-pyrrol[2,3-b]pyridin-2-yl)ethynyl)aniline], at Aβ1-42 fibers, the “Aβ Bmax1” value is listed as 11.0 ± 1 nmol/μmol prot, the Kd was determined as 4.27 ± 0.6 nM and the “Aβ Bmax1 (number of sites/monomer)” value is reported as 1/90.
`CN(C)c1ccc(C#Cc2cc3ccc(-c4ccc(F)nc4)nc3[nH]2)cc1` [Compound 25c, 4-((6-(6-Fluoropyridin-3-yl)-1H-pyrrolo[2,3-b]pyridin-2-yl)ethynyl)-N,N-dimethylaniline]: at Aβ1-42 fibers, the “Aβ Bmax1” value stood at 11.0 ± 2 nmol/μmol prot, the Kd stood at 3.1 ± 1 nM and the “Aβ Bmax1 (number of sites/monomer)” value is listed as 1/90.

(Values after patent publication US10906900B2, “Compounds for using in imaging and particularly for the diagnosis of neurodegenerative diseases” (CENTRE NATIONAL DE LA RECHERCHE SCIENTIFIQUE, priority 2016, dated 2021).)
